Where a chain is given by its changes, count along the chain named.
Assays:
[1] = target: T1, Gal4-ERR3 (Homo sapiens, UniProt P62508); test: Transient transfection luciferase reporter assay, Gal4-ERR3 in COS-1 cells; type: cell-based
T1 construct: expressed in transfected cells; host or cells: COS-1
T1 sequence (P62508 229-458): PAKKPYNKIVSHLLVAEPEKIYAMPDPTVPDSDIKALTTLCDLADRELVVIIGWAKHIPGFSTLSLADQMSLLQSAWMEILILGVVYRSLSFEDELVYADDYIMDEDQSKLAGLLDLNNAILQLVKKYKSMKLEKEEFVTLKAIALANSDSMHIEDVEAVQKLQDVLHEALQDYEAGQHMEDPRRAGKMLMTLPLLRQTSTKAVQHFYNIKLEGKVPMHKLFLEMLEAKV
Protocol: FIG. 6: represents the transcriptional activities of wild-type and mutant ERR3 fusion proteins in transient transfection assays, wherein (A) COS-1 cells were transfected in 24-well plates with 250 ng per well of Gal4(5×)-TATA-LUC reporter and 50 ng of wt or mutant pCMX-Gal4-ERR3 expression plasmid. […] (B) Experiments were performed as described in (A) using 250 ng per well of Gal4(3×)-TK-LUC reporter plasmid and 50 ng of wt or mutant Gal4-ERR3 expression plasmid. […] FIGS. A to C represent an average of three independent experiments. The activity of the Gal4 DBD control was set to one.
COS-1 and BHK cells were cultured in DMEM supplemented with 5% FCS, penicillin, streptomycin, and glutamine. Neuro2A cells were cultured in EMEM supplemented with 10% FCS, penicillin, streptomycin, glutamine, and non-essential amino acids. Transient transfection assays were carried out in 24-well plates (0.5×10^5 cells per well for COS-1 and Neuro2A cells, 0.25×10^5 cells per well for BHK cells) using the standard calcium phosphate coprecipitation technique as described in Greiner et al. (Greiner et al., 1996). Cells were transfected with 250 ng of Gal4(5×)-TATA-LUC, Gal4(3×)-TK-LUC, or ERE(2×)-TK-LUC reporter plasmid and 50 ng per well of pCMX-Gal4-ERR3 or pCMX-ERR3 expression plasmid. The empty plasmids pCMX-Gal4 and pCMX served as control. […]

[2] = target: T2, mutant ERR3 LBDs (A272F, A272L, F435L, L345I, L345I-F435L, L345I-F435L-F450L)/GST-SRC-1 RID complex (Homo sapiens, UniProt P62508, F435L); test: In vitro protein-protein interaction assay, mutant ERR3 LBDs with SRC-1 RID (native gels); type: biochemical; settings: 10^−4M 4-OHT
T2 construct: wt or mutant ERR3 LBDs (residues 229 to 458, human and murine receptor are identical); made in house; host or cells: E. coli BL21(DE3)
T2 sequence (P62508 229-458 F435L): T1 sequence (P62508 229-458) with F207L
Protocol: (§1) The His-tagged wt or mutant ERR3 LBDs, the GST-tagged SRC-1 RID, and GST were expressed in E. coli BL21(DE3) and partially purified by affinity chromatography using TALON (Clontech) or Glutathione Sepharose 4B (Pharmacia), respectively. […] After purification the proteins were dialyzed in assay buffer (20 mM Tris.HCl pH 8.0, 200 mM NaCl), and concentrated. For the protein-protein interaction assays […] (about 70 pmol) of His-tagged wt or mutant ERR3 LBD were mixed with […] (about 100 pmol) of GST-tagged SRC-1 RID or […] of GST and incubated on ice for 10 mins. […] Protein complexes were resolved on native polyacrylamide gradient gels (8%-25%) using the Phast System (Pharmacia).
(§2) In vitro interaction assays with the RID (amino acids 617-764) of the coactivator SRC-1 has first been performed. Hexahistidine (His)-tagged ERR3, LBD and GST-tagged SRC-1 RID were partially purified by affinity chromatography, the proteins were mixed, and complex formation was monitored on native polyacrylamide gels. […] Complexes were separated on native polyacrylamide gradient gels.
(§3) In addition, the ligand-binding pocket of ERR3 has been enlarged by either mutating F435 to leucine or by introducing a triple point mutation (L345I-F435L-F450L) which creates an “ERα-like” ligand-binding pocket.

[3] = system: mutant ERR3 LBDs (A272F, A272L, F435L, L345I, L345I-F435L, L345I-F435L-F450L)/GST-SRC-1 RID complex; test: as above; type: biochemical, human
Protocol: as §1, §2, §3

[4] = target: full length ERR3 (Homo sapiens, UniProt P62508); test: Transient transfection assay, full length ERR3 with ERE(2×)-TK-LUC reporter; type: cell-based; settings: in the presence of 4-OHT
Protocol: COS-1 and BHK cells were cultured in DMEM supplemented with 5% FCS, penicillin, streptomycin, and glutamine. Neuro2A cells were cultured in EMEM supplemented with 10% FCS, penicillin, streptomycin, glutamine, and non-essential amino acids. Transient transfection assays were carried out in 24-well plates (0.5×10^5 cells per well for COS-1 and Neuro2A cells, 0.25×10^5 cells per well for BHK cells) using the standard calcium phosphate coprecipitation technique as described in Greiner et al. (Greiner et al., 1996). Cells were transfected with 250 ng of Gal4(5×)-TATA-LUC, Gal4(3×)-TK-LUC, or ERE(2×)-TK-LUC reporter plasmid and 50 ng per well of pCMX-Gal4-ERR3 or pCMX-ERR3 expression plasmid. The empty plasmids pCMX-Gal4 and pCMX served as control. […] Luciferase activity was assayed as described in Greiner et al. (1996). All experiments were repeated at least three times. B. Results B.1.

[5] = target: T3, ERR1 (Homo sapiens, UniProt P11474); settings: Coward et al. (2001); cited from earlier work
T3 sequence (P11474 1-423): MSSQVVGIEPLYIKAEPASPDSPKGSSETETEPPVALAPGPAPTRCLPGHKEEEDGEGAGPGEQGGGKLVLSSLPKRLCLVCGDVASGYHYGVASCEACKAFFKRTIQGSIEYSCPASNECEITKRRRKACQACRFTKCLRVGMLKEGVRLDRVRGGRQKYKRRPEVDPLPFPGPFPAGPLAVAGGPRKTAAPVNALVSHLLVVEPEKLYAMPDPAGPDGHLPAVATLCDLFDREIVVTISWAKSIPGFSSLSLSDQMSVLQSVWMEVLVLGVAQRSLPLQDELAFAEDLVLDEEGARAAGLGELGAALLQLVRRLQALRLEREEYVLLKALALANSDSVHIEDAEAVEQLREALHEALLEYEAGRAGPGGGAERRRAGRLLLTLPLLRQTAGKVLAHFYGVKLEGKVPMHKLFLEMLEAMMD

full length ERR3, sequence (P62508 whole entry, the tested form may be a part): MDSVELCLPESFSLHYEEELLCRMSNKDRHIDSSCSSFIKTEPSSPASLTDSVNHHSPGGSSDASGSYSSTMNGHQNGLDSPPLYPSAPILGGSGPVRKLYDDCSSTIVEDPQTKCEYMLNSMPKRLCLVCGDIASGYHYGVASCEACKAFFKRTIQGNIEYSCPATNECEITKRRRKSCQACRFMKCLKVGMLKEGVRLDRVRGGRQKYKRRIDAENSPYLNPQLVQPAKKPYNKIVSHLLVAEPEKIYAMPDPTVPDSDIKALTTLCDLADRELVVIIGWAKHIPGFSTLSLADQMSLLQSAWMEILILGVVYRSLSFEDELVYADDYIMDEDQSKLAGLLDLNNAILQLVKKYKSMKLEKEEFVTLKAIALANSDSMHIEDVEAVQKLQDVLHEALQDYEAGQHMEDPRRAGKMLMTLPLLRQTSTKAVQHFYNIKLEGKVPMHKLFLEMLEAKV

4-hydroxytamoxifen [4-OHT]
activity of Gal4-ERR3 ([1]; 10^−6M 4-OHT, Gal4(5×)-TATA-LUC reporter): blocked efficiently
repression of the constitutive activity of Gal4-ERR3 below basal levels of the TK promoter ([1]; Gal4(3×)-TK-LUC reporter): neither 4-OHT nor DES repress
effect on the ERR3(F435L)/GST-SRC-1 RID complex [2]: still disrupted
effect on the complex between GST-SRC-1 RID and the mutants A272F or A272L ([3]; 10^−4M 4-OHT, ligand-binding cavity filled up): no effect
antagonist effect on ERR3 LBD mutants that contain a F435L mutation (F435L, L345I-F435L, L345I-F435L-F450L) in vitro ([3]; 10^−4M ligand): still acts as an antagonist
active repression of transcription of the TK promoter by full length ERR3 [4]: does not actively repress transcription
binding to ERR1 [5]: does not bind

— patent publication US7279325B2, “Method for identifying antagonist compounds of the estrogen-related receptor 3 (ERR3) by using the x-ray structural coordinates of the ligand binding domain” (priority 2002, dated 2007)
